ChEMBL document CHEMBL1201862, “PubChem BioAssay data set” (2004)
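Tested at 5 concentrations; 48 h exposure; 96-well plates; endpoints linearly interpolated, else capped at highest concentration. GI50: concentration for 50% inhibition of growth.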 Activity calls are given as the source filed them. Rule as the data show it: active = GI50 up to about 1.1 µM and inactive = higher.

Experiments:
Assay in all cases: growth of human tumour cells (NCI), 48 h
LOX IMVI = tested on: LOX IMVI
CCRF-CEM = tested on: CCRF-CEM
UACC-62 = tested on: UACC-62
IGROV-1 = tested on: IGROV-1
SK-MEL-2 = tested on: SK-MEL-2
SW-620 = tested on: SW-620
HCT-116 = tested on: HCT-116
MOLT-4 = tested on: MOLT-4
NCI-H460 = tested on: NCI-H460
OVCAR-5 = tested on: OVCAR-5
SK-MEL-28 = tested on: SK-MEL-28
HCT-15 = tested on: HCT-15
OVCAR-3 = tested on: OVCAR-3
SNB-19 = tested on: SNB-19
HT-29 = tested on: HT-29
COLO 205 = tested on: COLO 205
HOP-62 = tested on: HOP-62
HOP-92 = tested on: HOP-92
UACC-257 = tested on: UACC-257
MDA-N = tested on: MDA-N
OVCAR-8 = tested on: OVCAR-8
HL-60 = tested on: HL-60
NCI/ADR-RES = tested on: NCI/ADR-RES
NCI-H23 = tested on: NCI-H23
A549 = tested on: A549
Hs-578T = tested on: Hs-578T
T47D = tested on: T47D
BT-549 = tested on: BT-549
RPMI-8226 = tested on: RPMI-8226
SF-539 = tested on: SF-539
K562 = tested on: K562
TK-10 = tested on: TK-10
786-0 = tested on: 786-0
RXF 393 = tested on: RXF 393
SK-MEL-5 = tested on: SK-MEL-5
SNB-75 = tested on: SNB-75
PC-3 = tested on: PC-3
DU-145 = tested on: DU-145
CAKI-1 = tested on: CAKI-1
U-251 = tested on: U-251
SF-295 = tested on: SF-295
UO-31 = tested on: UO-31
SN12C = tested on: SN12C
EKVX = tested on: EKVX
MCF7 = tested on: MCF7
KM12 = tested on: KM12
A498 = tested on: A498
SR = tested on: SR
MDA-MB-435 = tested on: MDA-MB-435
MDA-MB-231 = tested on: MDA-MB-231
NCI-H226 = tested on: NCI-H226
ACHN = tested on: ACHN
SF-268 = tested on: SF-268
M14 = tested on: M14
HCC 2998 = tested on: HCC 2998
SK-OV-3 = tested on: SK-OV-3
NCI-H522 = tested on: NCI-H522
Malme-3M = tested on: Malme-3M

Compound: Nc1ncc(Sc2ccccc2C(=O)O)s1
- GI50 (LOX IMVI): > 100 µM (inactive)
- GI50 (CCRF-CEM): > 100 µM (inactive)
- GI50 (UACC-62): > 100 µM (inactive)
- GI50 (IGROV-1): > 100 µM (inactive)
- GI50 (SK-MEL-2): > 100 µM (inactive)
- GI50 (SW-620): > 100 µM (inactive)
- GI50 (HCT-116): > 100 µM (inactive)
- GI50 (MOLT-4): > 100 µM (inactive)
- GI50 (NCI-H460): > 100 µM (inactive)
- GI50 (OVCAR-5): > 100 µM (inactive)
- GI50 (SK-MEL-28): > 100 µM (inactive)
- GI50 (HCT-15): > 100 µM
- GI50 (OVCAR-3): > 100 µM (inactive)
- GI50 (SNB-19): > 100 µM (inactive)
- GI50 (HT-29): > 100 µM (inactive)
- GI50 (COLO 205): > 100 µM (inactive)
- GI50 (HOP-62): > 100 µM (inactive)
- GI50 (HOP-92): > 100 µM (inactive)
- GI50 (UACC-257): > 100 µM (inactive)
- GI50 (MDA-N): > 100 µM (inactive)
- GI50 (OVCAR-8): > 100 µM (inactive)
- GI50 (HL-60): > 100 µM (inactive)
- GI50 (NCI/ADR-RES): > 100 µM (inactive)
- GI50 (NCI-H23): > 100 µM (inactive)
- GI50 (A549): > 100 µM (inactive)
- GI50 (Hs-578T): > 100 µM (inactive)
- GI50 (T47D): > 100 µM (inactive)
- GI50 (BT-549): > 100 µM (inactive)
- GI50 (RPMI-8226): > 100 µM (inactive)
- GI50 (SF-539): > 100 µM (inactive)
- GI50 (K562): > 100 µM (inactive)
- GI50 (TK-10): > 100 µM (inactive)
- GI50 (786-0): > 100 µM (inactive)
- GI50 (RXF 393): > 100 µM (inactive)
- GI50 (SK-MEL-5): > 100 µM (inactive)
- GI50 (SNB-75): > 100 µM (inactive)
- GI50 (PC-3): > 100 µM (inactive)
- GI50 (DU-145): > 100 µM (inactive)
- GI50 (CAKI-1): > 100 µM (inactive)
- GI50 (U-251): > 100 µM (inactive)
- GI50 (SF-295): > 100 µM (inactive)
- GI50 (UO-31): > 100 µM (inactive)
- GI50 (SN12C): > 100 µM (inactive)
- GI50 (EKVX): > 100 µM (inactive)
- GI50 (MCF7): > 100 µM (inactive)
- GI50 (KM12): > 100 µM (inactive)
- GI50 (A498): > 100 µM (inactive)
- GI50 (SR): > 100 µM (inactive)
- GI50 (MDA-MB-435): > 100 µM (inactive)
- GI50 (MDA-MB-231): > 100 µM (inactive)
- GI50 (NCI-H226): > 100 µM (inactive)
- GI50 (ACHN): > 100 µM (inactive)
- GI50 (SF-268): > 100 µM (inactive)
- GI50 (M14): > 100 µM (inactive)

Compound: O=C1C=Cc2c(Br)sc(Br)c21
- GI50 (LOX IMVI): 20.5 µM (inactive)
- GI50 (CCRF-CEM): 2.64 µM (inactive)
- GI50 (UACC-62): 23.7 µM (inactive)
- GI50 (IGROV-1): 18.6 µM (inactive)
- GI50 (SK-MEL-2): 26.9 µM (inactive)
- GI50 (SW-620): 18 µM (inactive)
- GI50 (HCC 2998): 15.2 µM (inactive)
- GI50 (HCT-116): 29.1 µM (inactive)
- GI50 (MOLT-4): 13.5 µM (inactive)
- GI50 (NCI-H460): 32.3 µM (inactive)
- GI50 (OVCAR-5): 35.6 µM (inactive)
- GI50 (SK-MEL-28): 28.8 µM (inactive)
- GI50 (HCT-15): 26.2 µM
- GI50 (OVCAR-3): 15.8 µM (inactive)
- GI50 (SK-OV-3): 88.1 µM (inactive)
- GI50 (SNB-19): > 100 µM (inactive)
- GI50 (HT-29): 28.2 µM (inactive)
- GI50 (COLO 205): 34.2 µM (inactive)
- GI50 (HOP-62): 29.8 µM (inactive)
- GI50 (HOP-92): 24.7 µM (inactive)
- GI50 (UACC-257): 26.6 µM (inactive)
- GI50 (MDA-N): 30.1 µM (inactive)
- GI50 (OVCAR-8): 26.5 µM (inactive)
- GI50 (HL-60): 23.1 µM (inactive)
- GI50 (NCI/ADR-RES): 36.1 µM (inactive)
- GI50 (NCI-H23): 26.7 µM (inactive)
- GI50 (A549): 55.1 µM (inactive)
- GI50 (Hs-578T): 29.2 µM (inactive)
- GI50 (T47D): 34 µM (inactive)
- GI50 (BT-549): 27.3 µM (inactive)
- GI50 (NCI-H522): 26.1 µM (inactive)
- GI50 (RPMI-8226): 10.3 µM (inactive)
- GI50 (SF-539): 59.3 µM (inactive)
- GI50 (K562): 23 µM (inactive)
- GI50 (TK-10): 4.78 µM (inactive)
- GI50 (786-0): 34.9 µM (inactive)
- GI50 (RXF 393): 24.3 µM (inactive)
- GI50 (SK-MEL-5): 91.2 µM (inactive)
- GI50 (SNB-75): 90.4 µM (inactive)
- GI50 (PC-3): 19.7 µM (inactive)
- GI50 (DU-145): 43.8 µM (inactive)
- GI50 (CAKI-1): 19.6 µM (inactive)
- GI50 (Malme-3M): 23.1 µM (inactive)
- GI50 (U-251): 18.5 µM (inactive)
- GI50 (SF-295): > 100 µM (inactive)
- GI50 (UO-31): 17.7 µM (inactive)
- GI50 (SN12C): 39.8 µM (inactive)
- GI50 (EKVX): 26.1 µM (inactive)
- GI50 (MCF7): 19.3 µM (inactive)
- GI50 (KM12): 37.4 µM (inactive)
- GI50 (A498): > 100 µM (inactive)
- GI50 (SR): 24.7 µM (inactive)
- GI50 (MDA-MB-435): 19.1 µM (inactive)
- GI50 (MDA-MB-231): 21.7 µM (inactive)
- GI50 (ACHN): 24.7 µM (inactive)
- GI50 (SF-268): 30.5 µM (inactive)
- GI50 (M14): 25.9 µM (inactive)
